In patent US20250228832A1, “METHODS FOR TREATING DISORDERS AMELIORATED BY MUSCARINIC RECEPTOR ACTIVATION” (KARUNA THERAPEUTICS, INC., priority 2022, published 2025):
Read-outs that look alike come from different tables or passages of the source.

Experiments:
[1] = biological target: T1, human M4 receptor (Homo sapiens, UniProt P08173); assay: SPA GTP (GTPgS) binding curve shift assay, M4; format: biochemical
T1 construct: expressed in transfected cells
T1 sequence (P08173 1-479): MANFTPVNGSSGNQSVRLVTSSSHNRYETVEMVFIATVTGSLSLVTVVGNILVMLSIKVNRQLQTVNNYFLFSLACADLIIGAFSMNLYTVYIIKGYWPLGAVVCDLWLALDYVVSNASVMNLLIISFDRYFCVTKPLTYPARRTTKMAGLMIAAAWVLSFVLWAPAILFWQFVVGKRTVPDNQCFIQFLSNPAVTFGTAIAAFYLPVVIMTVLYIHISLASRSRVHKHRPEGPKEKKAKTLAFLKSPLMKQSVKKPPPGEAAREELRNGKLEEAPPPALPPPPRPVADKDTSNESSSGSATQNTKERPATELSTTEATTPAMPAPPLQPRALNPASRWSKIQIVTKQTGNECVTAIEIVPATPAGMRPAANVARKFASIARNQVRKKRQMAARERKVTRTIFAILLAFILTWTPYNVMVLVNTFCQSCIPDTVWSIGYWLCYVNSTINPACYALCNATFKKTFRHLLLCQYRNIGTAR
Protocol: Membranes were prepared for GTPgS binding assays from CHO-K1 cells stably expressing human M2 or human M4 receptors. Cells were grown in 5-layer cell culture flasks. Cells were washed with 50 mL of PBS and then dissociated with 0.05% trypsin. Dissociated cells were then collected by centrifugation at 650×g for 8 min at 4° C. Pellets were rewashed in PBS by centrifugation and resuspended in 30 mL of 20 mM HEPES, 10 mM EDTA, pH 7.4. After sitting on ice for 30 min, membranes were collected by centrifugation at 50000×g for 15 min at 4° C., resuspended in 30 mL of 20 mM HEPES, 0.1 mM EDTA, pH 7.4, and collected again by centrifugation. Pellets were then washed twice by centrifugation in 30 mL of 20 mM HEPES, pH 7.4, and stored at −80° C. until the day of the assay. On the day of the assay, pellets were thawed on ice and resuspended in 1 mL of 20 mM HEPES, pH 7.4, 10 mM MgCl2, and 100 mM NaCl using Dounce homogenization.
According to Promega guidelines, membrane protein concentration was determined by BCA protein assay (Promega, Madison, WI).
On the day of the assay, serial dilutions of test PAM compounds were brought up in assay buffer (20 mM HEPES, 10 mM MgCl2; see Table 4 for NaCl concentrations) at four times the final assay concentration. […] of membrane homogenates (containing […] of membrane protein) were prepared in assay buffer supplemented with GDP at 4× final assay concentration (see Table 4 for GDP concentrations) and dispensed into 96 well polypropylene, U-bottom Greiner plates. Membrane plates were incubated for 10 min at room temperature with gentle shaking. Then, 25 μL of test compounds were added to assay plates. Plates were then incubated, with shaking, for an additional 10-15 min. Then, 25 μL of diluted agonists serially diluted in assay buffer at 4× final assay concentration was added to assay plates. Plates were then incubated, with shaking, for an additional 10-15 min. Next, […] of 0.4 nM ^35S-GTP (Perkin Elmer, Waltham, MA) in assay buffer was added to assay mixtures. The binding reaction was left on the shaker for 1 h at room temperature. Membranes in assay reactions were then transferred to GF/C filter plates (UniFilter, Perkin Elmer) and washed three times using FilterMate Harvester (Perkin Elmer) with cold assay buffer containing no GDP. Filter plates were then dried at 40° C. overnight, and […] of Beta Plate Scintillation liquid was added. Plates were top and bottom sealed before being read on the TopCount scintillation counter (Perkin Elmer, Waltham, MA).
Raw data for all assays was transmitted directly from plate readers into the Beacon database for processing. All assay plates contained positive and negative control wells for data normalization and scaling. […] All control wells contained DMSO at a final assay concentration that matched the test compound wells.
For GTPgS assays, the negative control wells were defined as 0% response. The highest response in a plate was scaled to 1, representing 100% response. Data from test compound wells was scaled to these controls and are reported as % control values. This was done to allow for subsequent GraphPad cooperativity analysis, setting the maximal response at no more than 1.

[2] = 26-week study of Alzheimer's disease; cited from earlier work
[3] = 25-75 mg TID, 75-225 mg TDD; cited from earlier work
[4] = Emraclidine concentration 41.2 nM, read-out: Emax
[5] = Emraclidine concentration 123 nM, read-out: Emax
[6] = Emraclidine concentration 370 nM
[7] = Emraclidine concentration 1110 nM, read-out: Emax
[8] = Emraclidine concentration 3330 nM, read-out: Emax
[9] = MK-4710 concentration 41.2 nM, read-out: Emax
[10] = MK-4710 concentration 123 nM, read-out: Emax
[11] = MK-4710 concentration 1110 nM, read-out: Emax
[12] = MK-4710 concentration 3330 nM, read-out: Emax

EC50 ([1]; Emraclidine concentration 0 nM) [nM]	Emax ([1]; Emraclidine concentration 0 nM) [%]	Emax [1, 4] [%]	Emax [1, 5] [%]	Emax at […] [1, 6] [%]	Emax [1, 7] [%]	Emax [1, 8] [%]	Emax at […] ([1]; Emraclidine concentration […]) [%]	α (cooperativity, affinity shift) ([1]; M4 PAM Emraclidine)	β (cooperativity, efficacy shift) ([1]; M4 PAM Emraclidine)	τ (agonist pharmacology) ([1]; M4 PAM Emraclidine)	α (cooperativity, affinity shift) ([1]; M4 PAM MK-4710)	β (cooperativity, efficacy shift) ([1]; M4 PAM MK-4710)	Emax ([1]; MK-4710 concentration 0 nM) [%]	Emax [1, 9] [%]	Emax [1, 10] [%]	Emax at […] ([1]; MK-4710 concentration 370 nM) [%]	Emax [1, 11] [%]	Emax [1, 12] [%]	Emax at […] ([1]; MK-4710 concentration […]) [%]	SMILES	further results
1.6	2.6	17.8	29.6	46.5	62.4	66.8	10.6	3.0	32.3	0.6	1.0	1395.0	12.6	27.3	34.3	53.4	75.1	87.1	20.4	CCCCCOc1nsnc1C1=CCCCN1C [KTX-517, 3-(1-methyl-1,4,5,6-tetrahydropyridin-2-yl)-4-(pentyloxy)-1,2,5-thiadiazole]	τ (agonist pharmacology) ([1]; M4 PAM MK-4710): 0.8; EC50 ([1]; MK-4710 concentration 0 nM): 548 nM; EC50 ([1]; MK-4710 concentration 41.2 nM): 2.3 nM; EC50 ([1]; MK-4710 concentration 123 nM): 1.4 nM; EC50 ([1]; MK-4710 concentration 370 nM): 2.1 nM; EC50 ([1]; MK-4710 concentration 1110 nM): 2.3 nM; EC50 ([1]; MK-4710 concentration 3330 nM): 1.5 nM; EC50 ([1]; MK-4710 concentration […]): 8.7 nM
1300	4.0	13.2	28	49.2	73.3	86.3	10.6	1.0	57.2	0.4	1.0	136.5	6.4	20.2	26.6	42.1	68.1	83.6	14.4	CC1OC2(CS1)CN1CCC2CC1 (centres unmarked) [cevimeline, Cevimeline, reference compound]	τ (agonist pharmacology) ([1]; M4 PAM MK-4710): 0.1; EC50 ([1]; MK-4710 concentration 0 nM): 3010 nM
12.7	14.3	24.5	43.9	60.1	76.8	84	24.2	2.4	56.3	1.5	1.0	1051018.0	14.0	35.9	41.8	59.7	80	88.1	26	CCCCCCCOc1nsnc1C1=CCCCN1C [KTX-593, 3-(heptyloxy)-4-(1-methyl-1,4,5,6-tetrahydropyridin-2-yl)-1,2,5-thiadiazole]	τ (agonist pharmacology) ([1]; M4 PAM MK-4710): 381.2; EC50 ([1]; MK-4710 concentration 0 nM): 44.7 nM

SMILES	EC50 ([1]; Emraclidine concentration 0 nM) [nM]	Emax ([1]; Emraclidine concentration 0 nM) [%]	Emax [1, 4] [%]	Emax [1, 5] [%]	Emax at […] [1, 6] [%]	Emax [1, 7] [%]	Emax [1, 8] [%]	Emax at […] ([1]; Emraclidine concentration […]) [%]	α (cooperativity, affinity shift) ([1]; M4 PAM Emraclidine)	β (cooperativity, efficacy shift) ([1]; M4 PAM Emraclidine)	τ (agonist pharmacology) ([1]; M4 PAM Emraclidine)	α (cooperativity, affinity shift) ([1]; M4 PAM MK-4710)	β (cooperativity, efficacy shift) ([1]; M4 PAM MK-4710)	Emax ([1]; MK-4710 concentration 0 nM) [%]	Emax [1, 9] [%]	Emax [1, 10] [%]	Emax at […] ([1]; MK-4710 concentration 370 nM) [%]	Emax [1, 11] [%]	Emax [1, 12] [%]	Emax at […] ([1]; MK-4710 concentration […]) [%]	further results
CCCCCCOc1nsnc1C1=CCCN(C)C1 [xanomeline, reference compound]	–	27.2	31.9	38.1	60	78.7	89.4	28.7	–	–	1.4	–	–	19.7	29.7	38.5	55	70.6	80.5	25.1	dropout rate [2]: 56%; positive (psychosis), negative, and cognitive symptoms of schizophrenia [3]: improved
